Assay in all cases: MIC (YAG medium)
Common to all, as to assay type: cell-based

One experiment has as its system Aspergillus flavus. To be noted: YAG medium, MIC banded into grades; for MIC: Aspergillus flavus, read-out: MIC A. flavus (grade). The procedure, abridged: (§1)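 Spores harvested from 5-day Sabouraud agar cultures were diluted in YAG medium (1% glucose, 1% ammonium chloride, 0.5% yeast extract) to final inocula of 1-2×10^4 cfu/mL and exposed to doubling dilutions of compound (50-0.05 mg/L). After 24 hrs at 35° C, OD485 was read; MIC is the lowest concentration giving >70% growth inhibition versus drug-free control.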

In experiment [1] the test system is Aspergillus fumigatus AF210. Conditions: YAG medium, MIC banded into grades, AF210; for MIC: Aspergillus fumigatus, read-out: MIC A. fumigatus 210 (grade). The procedure, abridged: as §1
The subject of another experiment is Aspergillus terreus AT4. Conditions: YAG medium, MIC banded into grades, AT4; for MIC: Aspergillus terreus, read-out: MIC A. terreus (grade). The procedure, abridged: as §1
Experiment [2] relates to Aspergillus fumigatus AF293. Conditions: YAG medium, MIC banded into grades, AF293; for MIC: Aspergillus fumigatus, read-out: MIC A. fumigatus (grade). The procedure, abridged:
as §1

In the next experiment the test system is Aspergillus terreus AT49. To be noted: YAG medium, MIC banded into grades, AT49; for MIC: Aspergillus terreus, read-out: MIC A. terreus 49 (grade). In short, it runs like this:
as §1

The test system of another experiment is Aspergillus niger. To be noted: YAG medium, MIC banded into grades; for MIC: Aspergillus niger, read-out: MIC A. niger (grade). In short, it runs like this: as §1

≈ marks a conversion by molar mass, not a printed value. A value given as a limit tells only on which side of the number the result lay.

In general, MIC refers to the least concentration at which growth counts as inhibited. Turning to `O=C(Nc1cnccc1N1CCN(Cc2cccs2)CC1)C(=O)c1c(-c2ccccc2)cc2ccccn12` [Example 37, 2-Oxo-2-(2-phenyl-indolizin-3-yl)-N-[4-{4-thiophen-2-ylmethyl-piperazin-1-yl}-pyridine-3-yl]-acetamide], the minimal inhibitory concentration (MIC) (in the experiment with Aspergillus flavus; in experiment [1]; in the experiment on Aspergillus terreus AT4; in experiment [2]; in the experiment with Aspergillus terreus AT49; with Aspergillus niger) was less than 1 µg/mL throughout.
As to `O=C(Nc1cnccc1N1CCN(CCc2ccco2)CC1)C(=O)c1c(-c2ccccc2)cc2ccccn12` [Example 38, N-{4-[4-(2-Furan-2-yl-ethyl)-piperazin-1-yl]-pyridin-3-yl}-2-oxo-2-(2-phenyl-indolizin-3-yl)-acetamide], the minimal inhibitory concentration (MIC) (in the experiment on Aspergillus flavus; in experiment [1]; with Aspergillus terreus AT4; in experiment [2]; in the experiment on Aspergillus terreus AT49; in the experiment on Aspergillus niger) was less than 1 µg/mL throughout.
Consider `O=C(Nc1ccc(N2CCN(CCc3ccco3)CC2)cc1)C(=O)c1c(-c2ccccc2)cc2ccccn12` [Example 39, N-{4-[4-(2-Furan-2-yl-ethyl)-piperazin-1-yl]-phenyl}-2-oxo-2-(2-phenyl-indolizin-3-yl)-acetamide], for which the minimal inhibitory concentration (MIC) (with Aspergillus flavus; in experiment [1]; with Aspergillus terreus AT4; in experiment [2]; in the experiment with Aspergillus terreus AT49; in the experiment with Aspergillus niger) was less than 1 µg/mL throughout.
Take `C=C(C)CN1CCN(c2ccc(NC(=O)C(=O)c3c(-c4ccc(N5CCOCC5)cc4)cc4ccccn34)cc2)CC1` [Example 40, N-{4-[4-(2-Methyl-allyl)-piperazin-1-yl]-phenyl}-2-[2-(4-morpholin-4-yl-phenyl)-indolizin-3-yl]-2-oxo-acetamide]: the MIC in the experiment on Aspergillus flavus was 1 to 10 µg/mL (≈ 1.77 to 17.7 µM); in experiment [1], more than 10 µg/mL; in the experiment with Aspergillus terreus AT4 it was more than 10 µg/mL; in experiment [2] it was more than 10 µg/mL; with Aspergillus terreus AT49, more than 10 µg/mL; with Aspergillus niger it was more than 10 µg/mL.
As for `O=C(Nc1ccc(N2CCN(c3ccccn3)CC2)cc1)C(=O)c1c(-c2ccccc2)cc2ccccn12` [Example 41, 2-Oxo-2-(2-phenyl-indolizin-3yl)-N-[4-(4-pyridin-2-yl-piperizin-1-yl)-phenyl]-acetamide], the “MIC A. flavus (grade)” value with Aspergillus flavus is 3 (A grade of 3 represents an MIC of less than 1 mg/L). Further, the “MIC A. fumigatus 210 (grade)” value in experiment [1] is on record as 3 (A grade of 3 represents an MIC of less than 1 mg/L). Moreover, in the experiment on Aspergillus terreus AT4, the “MIC A. terreus (grade)” value is recorded as 3 (A grade of 3 represents an MIC of less than 1 mg/L). In addition, the “MIC A. fumigatus (grade)” value in experiment [2] was 3 (A grade of 3 represents an MIC of less than 1 mg/L). Moreover, the “MIC A. terreus 49 (grade)” value against Aspergillus terreus AT49 is listed as 3 (A grade of 3 represents an MIC of less than 1 mg/L). The “MIC A. niger (grade)” value in the experiment on Aspergillus niger is recorded as 3 (A grade of 3 represents an MIC of less than 1 mg/L).
Turning to `O=C(Nc1ccc(N2CCN(c3ccccn3)CC2)cc1)C(=O)c1c(-c2ccccc2)cc2ccc(F)cn12` [Example 42, 2-(6-Fluoro-2-phenyl-indolizin-3-yl)-2-oxo-N-[4-(4-pyridin-2-yl-piperazin-1-yl)phenyl] acetamide], the “MIC A. flavus (grade)” value against Aspergillus flavus was 3 (A grade of 3 represents an MIC of less than 1 mg/L). For the same compound, in experiment [1], the “MIC A. fumigatus 210 (grade)” value is 3 (A grade of 3 represents an MIC of less than 1 mg/L). For the same compound, the “MIC A. terreus (grade)” value in the experiment on Aspergillus terreus AT4 was 3 (A grade of 3 represents an MIC of less than 1 mg/L). The “MIC A. fumigatus (grade)” value in experiment [2] was 3 (A grade of 3 represents an MIC of less than 1 mg/L). In addition, the “MIC A. terreus 49 (grade)” value against Aspergillus terreus AT49 is 3 (A grade of 3 represents an MIC of less than 1 mg/L). Besides, the “MIC A. niger (grade)” value in the experiment with Aspergillus niger was 3 (A grade of 3 represents an MIC of less than 1 mg/L).
Consider `Cc1cccc(N2CCN(c3ccc(NC(=O)C(=O)c4c(-c5ccccc5)cc5ccccn45)cc3)CC2)n1` [Example 43, N-{4-[4-(6-Methyl-pyridin-2-yl)-piperazin-1-yl]-phenyl}-2-oxo-2-(2-phenyl-indolizin-3-yl)-acetamide], for which the minimum inhibitory concentration (MIC) (in the experiment with Aspergillus flavus; in experiment [1]; in the experiment with Aspergillus terreus AT4; in experiment [2]; with Aspergillus terreus AT49; in the experiment with Aspergillus niger) was less than 1 µg/mL each time.
On to `Cc1cc(C)nc(N2CCN(c3ccc(NC(=O)C(=O)c4c(-c5ccccc5)cc5ccccn45)cc3)CC2)n1` [Example 44, N-{4-[4-(4,6-Dimethyl-pyrimidin-2-yl)-piperazin-1-yl]-phenyl}-2-oxo-2-(2-phenyl-indolizin-3-yl)-acetamide], for which the minimum inhibitory concentration (MIC) (in the experiment on Aspergillus flavus; in experiment [1]; with Aspergillus terreus AT4; in experiment [2]; in the experiment on Aspergillus terreus AT49; in the experiment on Aspergillus niger) was less than 1 µg/mL throughout.
Consider `C=C1CCN(c2ccc(NC(=O)C(=O)c3c(-c4cccnc4C)cc4ccccn34)cc2)CC1` [Example 46, N-[4-(4-Methylene-piperidin-1-yl)-phenyl]-2-[2-(2-methyl-pyridin-3-yl)-indolizin-3-yl]-2-oxo-acetamide], for which the minimal inhibitory concentration (MIC) (in the experiment with Aspergillus flavus; in experiment [1]; in the experiment with Aspergillus terreus AT4; in experiment [2]; in the experiment on Aspergillus terreus AT49; in the experiment on Aspergillus niger) was less than 1 µg/mL in each case.
With `Cc1cc(C)nc(N2CCN(c3ccc(NC(=O)C(=O)c4c(C5CCCC5)cc5ccccn45)cc3)CC2)c1` [Example 47, 2-(2-Cyclopentyl-indolizin-3-yl)-N-{4-[4-(4,6-dimethyl-pyridin-2-yl)-piperazin-1-yl]-phenyl}-2-oxo-acetamide], the minimal inhibitory concentration (MIC) (with Aspergillus flavus; in experiment [1]; in the experiment with Aspergillus terreus AT4; in experiment [2]; in the experiment with Aspergillus terreus AT49; in the experiment on Aspergillus niger) was less than 1 µg/mL throughout.
On to `Cc1cc(C)nc(N2CCN(c3cccc(NC(=O)C(=O)c4c(-c5ccccc5)cc5ccccn45)c3)CC2)c1` [Example 48, N-{3-[4-(4,6-Dimethyl-pyridin-2-yl)-piperazin-1-yl]-phenyl}-2-oxo-2-(2-phenyl-indolizin-3-yl)-acetamide], for which the minimum inhibitory concentration (MIC) (in the experiment with Aspergillus flavus; in experiment [1]; with Aspergillus terreus AT4; in experiment [2]; with Aspergillus terreus AT49; with Aspergillus niger) was less than 1 µg/mL each time.
In the case of `Cc1ccnc(N2CCN(c3ccc(NC(=O)C(=O)c4c(-c5ccccc5)cc5ccccn45)cc3)CC2)c1` [Example 49, N-{4-[4-(4-Methyl-pyridin-2-yl)-piperazin-1-yl]-phenyl}-2-oxo-2-(2-phenyl-indolizin-3-yl)-acetamide], the minimal inhibitory concentration (MIC) (with Aspergillus flavus; in experiment [1]; in the experiment with Aspergillus terreus AT4; in experiment [2]; in the experiment with Aspergillus terreus AT49; with Aspergillus niger) was less than 1 µg/mL in each case.
With `CC(C)(C)CN1CCN(c2ccc(NC(=O)C(=O)c3c(-c4ccccc4)cc4ccccn34)nc2)CC1` [Example 50, N-{5-[4-(2,2-Dimethyl-propyl)-piperazin-1-yl]-pyridin-2-yl}-2-oxo-2-(2-phenyl-indolizin-3-yl)-acetamide], the minimum inhibitory concentration (MIC) (with Aspergillus flavus; in experiment [1]; in the experiment on Aspergillus terreus AT4; in experiment [2]; in the experiment with Aspergillus terreus AT49; with Aspergillus niger) was less than 1 µg/mL in each case.
With `O=C(Nc1ccc(N2CCN(S(=O)(=O)c3cccnc3)CC2)cc1)C(=O)c1c(-c2ccccc2)cc2ccccn12` [Example 51, 2-Oxo-2-(2-phenyl-indolizin-3-yl)-N-{4-[4-(pyridine-3-sulfonyl)-piperazin-1-yl]-phenyl}-acetamide], the MIC (with Aspergillus flavus; in experiment [1]; with Aspergillus terreus AT4; in experiment [2]; in the experiment on Aspergillus terreus AT49; with Aspergillus niger) was less than 1 µg/mL throughout.
As to `Cc1cc(N2CCN(c3ccc(NC(=O)C(=O)c4c(-c5ccccc5)cc5ccccn45)cc3)CC2)cc(C)n1` [Example 52, N-{4-[4-(2,6-Dimethyl-pyridin-4-yl)-piperazin-1-yl]-phenyl}-2-oxo-2-(2-phenyl-indolizin-3-yl)-acetamide], the MIC (in the experiment with Aspergillus flavus; in experiment [1]; in the experiment on Aspergillus terreus AT4; in experiment [2]; in the experiment with Aspergillus terreus AT49; with Aspergillus niger) was more than 10 µg/mL throughout.
`O=C(Nc1ccc(N2CCN(CC3CCOCC3)CC2)cc1)C(=O)c1c(-c2ccccc2)cc2ccc(F)cn12` [Example 53, 2-(6-Fluoro-2-phenyl-indolizin-3-yl)-2-oxo-N-{4-[4-(tetrahydro-pyran-4-ylmethyl)-piperazin-1-yl]-phenyl}-acetamide]: the MIC in the experiment on Aspergillus flavus was 1 to 10 µg/mL (≈ 1.85 to 18.5 µM); in experiment [1], 1 to 10 µg/mL (≈ 1.85 to 18.5 µM); in the experiment with Aspergillus terreus AT4, 1 to 10 µg/mL (≈ 1.85 to 18.5 µM); in experiment [2], 1 to 10 µg/mL (≈ 1.85 to 18.5 µM); with Aspergillus terreus AT49, 1 to 10 µg/mL (≈ 1.85 to 18.5 µM); in the experiment on Aspergillus niger it was more than 10 µg/mL.
On to `Cc1cc(C)nc(N2CCCN(c3ccc(NC(=O)C(=O)c4c(-c5ccccc5)cc5ccccn45)cc3)CC2)c1` [Example 54, N-{4-[4-(4,6-Dimethyl-pyridin-2-yl)-[1,4]diazepan-1-yl]-phenyl}-2-oxo-2-(2-phenyl-indolizin-3-yl)-acetamide], for which the MIC (in the experiment with Aspergillus flavus; in experiment [1]; with Aspergillus terreus AT4; in experiment [2]; in the experiment on Aspergillus terreus AT49; in the experiment on Aspergillus niger) was less than 1 µg/mL in each case.

The values above are taken from patent US20110183969A1, “ANTIFUNGAL COMBINATION THERAPY” (priority 2008, published 2011).
